According to patent US20240150293A1, “SPIROCYCLOHEXANE DERIVATIVES, PHARMACEUTICAL COMPOSITIONS CONTAINING THEM AND THEIR USES AS ANTI-APOPTOTIC INHIBITORS” (LES LABORATOIRES SERVIER, priority 2021, published 2024):
Where two headings read alike, the source gives them in different places.

What was measured:
NCI-H929 cell lines = test: In vitro cytotoxicity, CellTiter-Glo (CTG) assay (Example B, Method B); format: cell-based; conditions: Homo sapiens, NCI-H929, 48 h, NCI-H929 cells, 48 h incubation, read-out: C50
Procedure: Cellular viability was monitored with the cell viability assay (Cell Titer-Glo®) on NCI-H929 cell lines. The CellTiter-Glo® (CTG) Luminescent Cell Viability Assay (from Promega) is a homogeneous method to determine the number of viable cells in culture based on quantitation of the ATP present, which signals the presence of metabolically active cells.
Concentration response of test compounds are performed with 10 mM stock solutions (DMSO), 11-points curve, in a 384-well compound plate. The assay plate is prepared by stamping 120 nL from compound dilution plate of all different concentrations (e.g. 10 mM to have final 30 μM assay test) into a cell culture microplate, using Echo acoustic liquid handling (Labcyte, Beckman). 40 μl of cell solution is added and cells are incubated with compounds for 48 h at 37° C., 5% CO2. CTG was added to the cells (according to the manufacturer instructions) and luminescence intensity was recorded using the Pherastar plate reader (BMG).
This assay provides in vitro cellular efficacy of compounds of Formula (I) tested, measuring the C50, defined as the concentration needed to reach 50% of the cellular viability.

[1] = biological target: Cy5-labelled Mcl1 (amino acids 171-321) C286S protein (UniProtKB Q07820) (Homo sapiens (Human), UniProt Q07820, C286S); test: Inhibition of Mcl-1 by the fluorescence quenching assay (Example A, Method B); format: binding
Sequence of Cy5-labelled Mcl1 (amino acids 171-321) C286S protein (Q07820 171-321 C286S): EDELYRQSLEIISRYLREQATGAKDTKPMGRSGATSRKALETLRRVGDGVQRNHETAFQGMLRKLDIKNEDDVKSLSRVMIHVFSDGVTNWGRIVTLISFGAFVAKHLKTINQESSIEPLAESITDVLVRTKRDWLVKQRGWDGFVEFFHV
How it was run: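 Cy5-labelled Mcl1 171-321 C286S (1 nM) quenched by TQ5WS-labelled PUMA peptide (10, 20 or 400 nM); displacement raises fluorescence (Ex 620/Em 680 nm). Buffer 10 mM HEPES, 150 mM NaCl, 0.05% Tween 20, pH 7.4, 5% DMSO; 2 h at room temperature, 11-point curves, IC50 converted to Ki (cKi/eKi).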

[2] = test system: H929 multiple myeloma tumor line; test: In vitro cytotoxicity, MTT assay (Example B, Method A); format: cell-based; conditions: H929 cells, 48 hours exposure, read-out: C50
Procedure: The cytotoxicity studies were carried out on the H929 multiple myeloma tumor line.
The cells are distributed onto microplates and exposed to the test compounds for 48 hours. The cell viability is then quantified by a colorimetric assay, the Microculture Tetrazolium Assay (Carmichael et al, Cancer Res. 1987, 47, 939-942).
The results are expressed in C50 which means concentration corresponding to […] of effect/inhibition.

Row | Ki [1] [nM] | SMILES | IC50 (NCI-H929 cell lines) [nM] | IC50 ([2]; Homo sapiens, NCI-H929, 48 h) [nM] | IC50 [2] [nM]
1 | 0.0509 | C[C@@H](COc1ccnc2c1[C@H](C)CCC2)C[C@H]1Cc2ccc(CO)cc2[C@]12CC[C@@](Nc1cccc(Cl)c1)(C(=O)O)CC2 [Example 870, (1r,2′S,4S)-4-(3-chloroanilino)-6′-(hydroxymethyl)-2′-[(2R)-2-methyl-3-{[(5R)-5-methyl-5,6,7,8-tetrahydroquinolin-4-yl]oxy}propyl]-2′,3′-dihydrospiro[cyclohexane-1,1′-indene]-4-carboxylic acid] | 126 |  | 
2 | 0.154 | C[C@@H](COc1ccnc2c1[C@H](C)CCC2)C[C@H]1Cc2ccc(-c3cccn3C)cc2[C@]12CC[C@@](Nc1cccc(Cl)c1)(C(=O)O)CC2 [Example 881, (1r,2′S,4S)-4-(3-chloroanilino)-2′-[(2R)-2-methyl-3-{[(5R)-5-methyl-5,6,7,8-tetrahydroquinolin-4-yl]oxy}propyl]-6′-(1-methyl-1H-pyrrol-2-yl)-2′,3′-dihydrospiro[cyclohexane-1,1′-indene]-4-carboxylic acid] | 153 |  | 
3 | 4.06 | C[C@@H](COc1ccnc2c1[C@H](C)CCC2)C[C@@H]1Cc2ccc(-c3ccsc3)cc2[C@]12CC[C@@](Nc1cccc(Cl)c1)(C(=O)O)CC2 [Example 879, (1r,2′R,4R)-4-(3-chloroanilino)-2′-[(2R)-2-methyl-3-{[(5R)-5-methyl-5,6,7,8-tetrahydroquinolin-4-yl]oxy}propyl]-6′-(thiophen-3-yl)-2′,3′-dihydrospiro[cyclohexane-1,1′-indene]-4-carboxylic acid] | 1360 |  | 
4 | 5.09 | C[C@@H](COc1ccnc2c1[C@H](C)C(F)(F)CC2)C[C@H]1Cc2ccccc2[C@]12CC[C@@](Nc1cccc(Cl)c1)(C(=O)O)CC2 [Example 700, (1r,2′S,4S)-4-(3-chloroanilino)-2′-[(2R)-3-{[(5S)-6,6-difluoro-5-methyl-5,6,7,8-tetrahydroquinolin-4-yl]oxy}-2-methylpropyl]-2′,3′-dihydrospiro[cyclohexane-1,1′-indene]-4-carboxylic acid] |  | 330 | 
5 | 0.384 | C[C@@H](COc1ccnc2c1[C@H](C)CCC2)C[C@@H]1Cc2ccc(CO)cc2[C@]12CC[C@@](Nc1cccc(Cl)c1)(C(=O)O)CC2 [Example 869, (1r,2′R,4R)-4-(3-chloroanilino)-6′-(hydroxymethyl)-2′-[(2R)-2-methyl-3-{[(5R)-5-methyl-5,6,7,8-tetrahydroquinolin-4-yl]oxy}propyl]-2′,3′-dihydrospiro[cyclohexane-1,1′-indene]-4-carboxylic acid] |  | 193 | 
6 | 65.6 | C[C@@H](COc1ccnc2c1[C@@H](C(F)(F)F)CCC2)C[C@H]1Cc2ccccc2[C@]12CC[C@@](Nc1cccc(Cl)c1)(C(=O)O)CC2 [Example 698, (1r,2′S,4S)-4-(3-chloroanilino)-2′-[(2R)-2-methyl-3-{[(5S)-5-(trifluoromethyl)-5,6,7,8-tetrahydroquinolin-4-yl]oxy}propyl]-2′,3′-dihydrospiro[cyclohexane-1,1′-indene]-4-carboxylic acid] |  | 5430 | 
7 | 26.4 | C[C@@H]1CCCc2nccc(OCC(CF)CC3=Cc4ccccc4[C@]34CC[C@@](Nc3cccc(Cl)c3)(C(=O)O)CC4)c21 (single isomer, unassigned) [Example 515] |  |  | 2390
8 | 9.28 | C[C@@H](COc1ccnc2ccn(C)c12)C[C@H]1Cc2ccccc2[C@]12CC[C@@](Nc1cccc(Cl)c1)(C(=O)O)CC2 [Example 619, (1r,2′S,4S)-4-(3-chloroanilino)-2′-{(2R)-2-methyl-3-[(1-methyl-1H-pyrrolo[3,2-b]pyridin-7-yl)oxy]propyl}-2′,3′-dihydrospiro[cyclohexane-1,1′-indene]-4-carboxylic acid] |  | 1360 | 
9 | 29.5 | C[C@@H](COc1ccnc2c1[C@@H](C)CC[C@@H]2F)C[C@H]1Cc2ccccc2[C@]12CC[C@@](Nc1cccc(Cl)c1)(C(=O)O)CC2 [Example 690, (1r,2′S,4S)-4-(3-chloroanilino)-2′-[(2R)-3-{[(5S,8S)-8-fluoro-5-methyl-5,6,7,8-tetrahydroquinolin-4-yl]oxy}-2-methylpropyl]-2′,3′-dihydrospiro[cyclohexane-1,1′-indene]-4-carboxylic acid] |  | 1410 | 
10 | 9.39 | C[C@@H](COc1ccnc2c1[C@@H](C)CCC2)CC1=Cc2ccccc2[C@]12CC[C@@](Nc1cccc(Cl)c1)(C(=O)O)CC2 [Example 647, (1r,4R)-4-(3-chloroanilino)-2′-[(2R)-2-methyl-3-{[(5S)-5-methyl-5,6,7,8-tetrahydroquinolin-4-yl]oxy}propyl]spiro[cyclohexane-1,1′-indene]-4-carboxylic acid] |  | 871 | 

Continued, compound first:

Row | SMILES | Ki [1] [nM] | IC50 (NCI-H929 cell lines) [nM] | IC50 ([2]; Homo sapiens, NCI-H929, 48 h) [nM] | IC50 [2] [nM]
11 | CNC(=O)[C@]1(Nc2cccc(Cl)c2)CC[C@@]2(CC1)c1cc3c(cc1C[C@@H]2C[C@@H](C)COc1ccnc2c1[C@H](C)CCC2)OCO3 [Example 955, (1r,4S,6′S)-4-(3-chloroanilino)-N-methyl-6′-[(2R)-2-methyl-3-{[(5R)-5-methyl-5,6,7,8-tetrahydroquinolin-4-yl]oxy}propyl]-6′,7′-dihydro-2′H-spiro[cyclohexane-1,5′-indeno[5,6-d][1,3]dioxole]-4-carboxamide] |  | 11300 |  | 
12 | C[C@@H](COc1ccnc2c1[C@H](C)CCC2)C[C@H]1Cc2cc3c(cc2[C@]12CC[C@@](Nc1cccc(Cl)c1)(C(N)=O)CC2)OCO3 [Example 954, (1r,4S,6′S)-4-(3-chloroanilino)-6′-[(2R)-2-methyl-3-{[(5R)-5-methyl-5,6,7,8-tetrahydroquinolin-4-yl]oxy}propyl]-6′,7′-dihydro-2′H-spiro[cyclohexane-1,5′-indeno[5,6-d][1,3]dioxole]-4-carboxamide] |  | 2790 |  | 
13 | C[C@@H](COc1ccnc2c1[C@H](C)CCC2)C[C@H]1Cc2cc3c(cc2[C@]12CC[C@@](Nc1cccc(Cl)c1)(C(=O)N(C)C)CC2)OCO3 [Example 956, (1r,4S,6′S)-4-(3-chloroanilino)-N,N-dimethyl-6′-[(2R)-2-methyl-3-{[(5R)-5-methyl-5,6,7,8-tetrahydroquinolin-4-yl]oxy}propyl]-6′,7′-dihydro-2′H-spiro[cyclohexane-1,5′-indeno[5,6-d][1,3]dioxole]-4-carboxamide] |  | 14500 |  | 
14 | CC(C)(COc1ccnc2sccc12)CC1Cc2ccccc2C12CCC(Nc1cccc(Cl)c1)(C(=O)O)CC2 (single isomer, unassigned) [Example 622, (1r,4r)-4-(3-chloroanilino)-2′-{2,2-dimethyl-3-[(thieno[2,3-b]pyridin-4-yl)oxy]propyl}-2′,3′-dihydrospiro[cyclohexane-1,1′-indene]-4-carboxylic acid] | 44.6 |  | 17100 | 
15 | CC(CC1Cc2ccccc2[C@]12CC[C@@](Nc1cccc(Cl)c1)(C(=O)O)CC2)C1CCC(=O)CC1 (single isomer, unassigned) [Example 572, (1r,4r)-4-(3-chloroanilino)-2′-[2-(4-oxocyclohexyl)propyl]-2′,3′-dihydrospiro[cyclohexane-1,1′-indene]-4-carboxylic acid] | 84.2 |  |  | 30000
16 | O=C(O)[C@]1(Nc2cccc(Cl)c2)CC[C@@]2(CC1)c1ccccc1CC2CC(COc1ccnc2c1CCC2)COc1ccnc2c1CCC2 (single isomer, unassigned) [Example 498, (1r,4r)-4-(3-chloroanilino)-2′-(3-[(6,7-dihydro-5H-cyclopenta[b]pyridin-4-yl)oxy]-2-{[(6,7-dihydro-5H-cyclopenta[b]pyridin-4-yl)oxy]methyl}propyl)-2′,3′-dihydrospiro[cyclohexane-1,1′-indene]-4-carboxylic acid] | 0.769 |  |  | 436
17 | O=C(O)[C@]1(Nc2cccc(Cl)c2)CC[C@@]2(CC1)c1ccccc1CC2CC(COc1ccnc2ccsc12)Cc1ccccc1 (single isomer, unassigned) [Example 561, (1r,4r)-2′-{2-benzyl-3-[(thieno[3,2-b]pyridin-7-yl)oxy]propyl}-4-(3-chloroanilino)-2′,3′-dihydrospiro[cyclohexane-1,1′-indene]-4-carboxylic acid] | 57.1 |  |  | 12300
18 | C[C@@H](COc1ncnc2c1CCCC2)C[C@H]1Cc2ccccc2[C@]12CC[C@@](Nc1cccc(Cl)c1)(C(=O)O)CC2 [Example 637, (1r,2′S,4S)-4-(3-chloroanilino)-2′-{(2R)-2-methyl-3-[(5,6,7,8-tetrahydroquinazolin-4-yl)oxy]propyl}-2′,3′-dihydrospiro[cyclohexane-1,1′-indene]-4-carboxylic acid] | 5.13 |  | 1540 | 
